Test results published in PMC9143043, “Synthesis and Biological Evaluation of 5′-O-Fatty Acyl Ester Derivatives of 3′-Fluoro-2′,3′-dideoxythymidine as Potential Anti-HIV Microbicides” (Molecules, 2022).
Read-outs that look alike come from different tables or passages of the source.

Legend:
CCRF-CEM cells [1] = assay: Cell viability study (trypan blue, Cellometer); type: cell-based, human; conditions: 10 µM, 24 h incubation
Description: Cell viability study was performed to analyze the effect of FAM, 23, and 24 on the live cells. The CCRF-CEM cells were incubated with 10 µM of the compounds and mixed with trypan blue (0.1%) to color the dead cells. The percentage of viability was calculated by using Cellometer Auto T.4 (Nexcelom Bioscience). It was observed that at least 80% of the cells were viable in the presence of the compounds in a 24 h incubation period (Supporting Materials, Figure S1).
(§1) Human T lymphoblastoid cells (CCRF-CEM, ATCC No. CCL-119) were grown to 70% confluency in a culture medium. CCRF-CEM cells were incubated with 10 µM of the compounds and mixed with trypan blue (0.1%) to color the dead cells. The percentage of viability was calculated by using a Cellometer Auto T.4 (Nexcelom Bioscience). The cell viability against the vaginal cells (VK-2/E6E7) was conducted according to the previously reported procedure. The effect of conjugates on the sperm viability and mobility was evaluated as described previously.

CCRF-CEM cells [2] = assay: Real-time fluorescence microscopy in live cells; type: cell-based, human; conditions: 10 µM, 1 h
Description: Cells incubated with 10 µM of DMSO, FAM, 23 and 24 for 1 h were used for real time fluorescence microscopy using transmitted light microscopy equipped with a differential-interference contrast method and an Achroplan 40× objective.
The products were purified on a Phenomenex®Gemini 10 µm ODS reversed-phase column (2.1 × 25 cm) with a Hitachi HPLC system using a gradient increment in the acetonitrile (0.1%TFA) concentration from 0 to 100% in 45 min at a constant flow rate of 17 mL/min. The purity of the compounds was confirmed by using an analytical Hitachi analytical HPLC system on a C18 column (Grace Allsphere ODS 2–3 µ, 150 × 4.6 mm) using a gradient system (water:acetonitrile 30:70 v/v) at a constant flow rate of 1 mL/min with a UV detection at 265 nm. The chemical structures of the final products were characterized by nuclear magnetic resonance spectrometry (^1H NMR and ^13C NMR) determined on a Bruker NMR spectrometer (400 MHz, Daltonik, Bremen, Germany) and confirmed by a high-resolution PE Applied Biosystems Mariner API time-of-flight electrospray mass spectrometer (Waltham, MA, USA). Chemical shifts are reported in parts per millions (ppm). For cellular uptake studies, cells were analyzed by flow cytometry (FACSCalibur: Becton Dickinson, San Jose, CA, USA) using the FITC channel and CellQuest software 7.5.3 (Becton Dickinson, San Jose, CA, USA). […]

[3] = test system: HIV-infected T4 lymphocytes; set-up: method as in PMID 9191015; conditions: read-out: EC50 against HIV-infected T4 lymphocytes; cited from earlier work
HIV-1 = assay: Anti-HIV activity overall (cell-free and cell-associated assays) and antiviral index; type: cell-based; conditions: for antiviral index, times better than AZT: versus AZT; for antiviral index, times better than FLT: versus FLT
Excerpt: Table 2, Table 3 and Table 4 illustrate the anti-HIV-1 activities against the cell-free, cell-associated, and multidrug-resistant virus and sperm inhibiting properties of the selected compounds. In summary, the anti-HIV activity of 5′-substituted derivatives of FLT and AZT (5–18) was dependent on the nature of the 5′-substituent. […] None of the other esters were active against cell-associated virus. […] The difference in the activity of fatty acyl derivatives of FLT compared to each other and FLT may be due to their differences in the rate of uptake and intracellular hydrolysis.
By design, the ester moiety in the conjugates needs to be hydrolyzed to render parent nucleosides and fatty acids to produce anti-HIV activity. The anti-HIV activities of 5′-O-ether substituted FLT and AZT (3 and 4, Scheme 2) with a stable tetradecanyl (myristyl) group were compared with hydrolyzable 5′-O-ester substituted FLT and AZT (6 and 7).
(§2) Anti-HIV activities of the compounds were evaluated according to the previously reported procedure. In summary, the HeLa (Human cervical carcinoma: ATCC CCL-2.1) cell line was used to measure the inactivation of both the cell-free virus preparations and virus-infected cell preparations. The cells were plated in culture plates 24 h prior to each experiment. Cell-free viral preparations of HIV-1 strains IIIB (lymphocytotropic strain) and BaL (monocytotropic strain) were used for the cell-free assay. For the cell-associated assay, the SulT1 cells were infected with IIIB virus 5 days prior to the experiment. Cell-free virus and virus-infected cells were mixed with different compounds and diluted to make different concentrations. The mixture was further diluted with the buffer and added to the HeLa cells.

sperm = assay: Spermicidal activity (sperm viability and motility); type: cell-based; conditions: abstract; versus N-9 positive control
Description: In this study, several fatty acyl conjugates of nucleosides (5–8, 10–12, 15, and 16) were tested for their spermicidal activities. […] Detailed data analysis is available in the Supplementary Materials (Figure S2).
as §1

[4] = test system: human vaginal cells (VK-2/E6E7); assay: Vaginal cell cytotoxicity (MTS assay); type: cell-based; conditions: 6 h incubation; 31-1000 µg/mL
Description: A commercially used spermicidal agent (N-9) and conjugate cytotoxicity was evaluated using immortalized human vaginal cells (VK-2/E6E7). […] Observed cytotoxicity from N-9 could be correlated with the generation of higher levels of cytokines by N-9.
as §1
Figure 2 (A) Dose–response curves of the vaginal cytotoxicity in VK-2 cells (MTS assay) for 5, 6, 8, and N-9 after 6 h incubations. (B) Proinflammatory cytokine (IL-1α) production in the VK-2 cells (ELISA) after a 6 h incubation in the presence of 5, 6, 8, and N-9.

[5] = test system: HIV-1 strain IIIB (lymphocytotropic strain); assay: Single-round infection assay, cell-free X4 virus (lymphocytotropic strain); type: cell-based
Description: as §2

[6] = test system: cell-associated HIV-1 IIIB (infected SulT1 cells); assay: Cell-associated transmission assay (IIIB); type: cell-based; conditions: Human immunodeficiency virus 1, IIIB
Description: as §2

Cytotoxicity assay (MTS) = type: cell-based; conditions: human, HeLa cells (ATCC CCL-2.1)
[7] = test system: HIV-1 strain BaL (monocytotropic strain); assay: Single-round infection assay, cell-free R5 virus (monocytotropic strain); type: cell-based; conditions: Human immunodeficiency virus 1, BAL
Description: as §2

[8] = test system: HIV-1 94US3393IN (B-Wild Type); assay: PBMC multi-round infection assay, clinical isolate 94US3393IN; type: cell-based; conditions: Human immunodeficiency virus 1
Description: (§3) Based on a preliminary screening, conjugates 5 and 8 were evaluated for their ability to inhibit a drug-resistant virus in a peripheral blood mononuclear cell (PBMC) assay. In this assay, FLT, 5, and 8 were tested against B- and C-wild type and A-17 and 4755–5 multidrug-resistant (MDR) clinical isolates of HIV-1, where compounds were incubated with PBMCs for 6 h and then washed off before the addition of the virus and further culture for 7 days.
(§4) For the assessment of compounds against the wild type (WT; R5; clones = 94US3393IN [B subtype] and 98USMSC5016 [C subtype]) and drug-resistant (clones = 4755−5 and A17) HIV-1 clinical isolates, PHA-P stimulated cells from at least two normal donors were pooled, diluted in fresh media, and plated in the interior wells of a 96-well round-bottom microplate. Pooling PBMCs from more than one donor was used to minimize the variability observed between the individual donors, which results from the quantitative and qualitative differences in HIV infection and overall response to the PHA and IL-2 of primary lymphocyte populations. Each plate contained virus/cell control wells (cells + virus), experimental wells (drug + cells + virus), and compound control wells (drug + media, no cells, necessary for MTS monitoring of cytotoxicity). Test drug dilutions were prepared in microtiter tubes, and each concentration was placed in appropriate wells. Following the addition of the drug dilutions to the PBMCs, a predetermined dilution of virus stock was then placed in each test well (final MOI ≅ 0.1). Because HIV-1 is not cytopathic to PBMCs, the same assay plate can be used for both the antiviral efficacy and cytotoxicity measurements. Compounds were incubated with virus and cells in a 96-well format for 6 h. The cells were then washed by removing 75% of the medium (150 μL) and replacing it with 150 μL of fresh (no drug) medium. The plates were then centrifuged (∼200 g) for 10 min, after which 150 μL of the medium was removed, and an additional 150 μL of fresh medium was added to each well and further incubated for 6 days or until peak reverse transcriptase (RT) activity was detected. A microtiter plate-based RT reaction was utilized. Incorporated radioactivity (counts per minute, CPM) was quantified using standard liquid scintillation techniques. Compound IC50 (50%, inhibition of virus replication) was calculated using statistical software and regression analysis. A cellular uptake study was conducted for fluorescence conjugates 23 and 24 using a previously published procedure with minor modifications. All of the experiments were conducted in triplicate.

[9] = test system: HIV-1 98USMSC5016 (C-Wild Type); assay: PBMC multi-round infection assay, clinical isolate 98USMSC5016; type: cell-based; conditions: Human immunodeficiency virus 1
Description: as §3, §4

HIV-1 A-17 MDR (B-NNRTI) = assay: PBMC multi-round infection assay, resistant isolate A-17; type: cell-based
Description: as §3, §4

HIV-1 4755-5 MDR (B-MDR) = assay: PBMC multi-round infection assay, resistant isolate 4755-5; type: cell-based
Description: as §3, §4

[10] = Human immunodeficiency virus 1, IIIB, read-out: (X4) EC50, Table 2, single-round infection assay
[11] = read-out: (CA) EC50, Table 2, cell-associated transmission assay (IIIB)
[12] = Table 2, MTS, 50% effective concentration
[13] = Human immunodeficiency virus 1, PBMC

## 5(6)-carboxyfluorescein [FAM]
CCRF-CEM cells [1]
  viable cells: at least 80%
CCRF-CEM cells [2]
  cell fluorescence (real time fluorescence microscopy): no significant fluorescence

## CCSCCCCCCCCCCCC(=O)O [12-thioethyldodecanoic acid]
[3]
  EC50: 9.4 µM

## CCCCCCCCCCCCCC(=O)OC[C@H]1O[C@@H](n2cc(C)c(=O)[nH]c2=O)C[C@@H]1F [Compound 6, 5′-O-(myristoyl)-3′-fluoro-2′,3′-dideoxythymidine]
HIV-1
  anti-HIV activity (in words): significant anti-HIV activity at noncytotoxic concentrations
  antiviral index, times better than AZT: > 30 times
  antiviral index, times better than FLT: > 4 times
sperm
  effect on sperm viability: did not alter vaginal cell and sperm viability
[4]
  cytotoxicity to vaginal cells: did not show significant cytotoxic effects
[5]; [10]
  EC50: ≤ 1000 nM
[5]; Human immunodeficiency virus 1, IIIB, read-out: (X4) EC50, Table 3, viral entry inhibition assay
  EC50: 700 nM
[6]; [11]
  EC50: 6.4 µM
[6]; read-out: (CA) EC50, Table 3, cell-to-cell transmission assay (IIIB)
  EC50: 6.4 µM
Cytotoxicity assay (MTS); [12]
  EC50: 606 µM
Cytotoxicity assay (MTS); Table 3, conjugates vs physical mixtures
  EC50: 606 µM
[7]; read-out: (R5) EC50, Table 2, single-round infection assay
  EC50: ≤ 1000 nM
[7]; read-out: (R5) EC50, Table 3, viral entry inhibition assay
  EC50: 1100 nM

## CCSCCCCCCCCCCCC(=O)OC[C@H]1O[C@@H](n2cc(C)c(=O)[nH]c2=O)C[C@@H]1F [Compound 8, 3′-fluoro-2′,3′-dideoxy-5′-O-(12-thioethyldodecanoyl)thymidine]
HIV-1
  anti-HIV activity (in words): significant anti-HIV activity at noncytotoxic concentrations
  antiviral index, times better than AZT: > 30 times
  antiviral index, times better than FLT: > 4 times
sperm
  effect on sperm viability: did not alter vaginal cell and sperm viability
[4]
  cytotoxicity to vaginal cells: did not show significant cytotoxic effects
[8]
  IC50: 0.6 nM
  IC90: 10.3 nM
[9]
  IC50: 1 nM
  IC90: 8.2 nM
[5]; [10]
  EC50: ≤ 1000 nM
[5]; read-out: (X4) EC50, Table 2, single-round infection assay
  EC50: 1000 nM
HIV-1 A-17 MDR (B-NNRTI); [13]
  IC50: 13.6 nM
  IC90: 45.7 nM
HIV-1 A-17 MDR (B-NNRTI); versus FLT IC50
  fold more potent than FLT against A-17: twice as active
HIV-1 4755-5 MDR (B-MDR); [13]
  IC50: 112 nM
  IC90: 662 nM
HIV-1 4755-5 MDR (B-MDR); versus FLT IC50
  fold more potent than FLT against 4755-5: equally active
[6]; [11]
  EC50: 2.3 µM
Cytotoxicity assay (MTS); [12]
  EC50: > 2000 µM
